For one data set, the system named is Echinochloa crus-galli. As to the kind of experiment: Herbicidal activity against Echinochloa crus-galli (barnyard grass) assessed as killing at 500 g/ha pre-emergence application upland paddy conditions measured after 14 days. The data set is classed as functional.
The subject of a further data set is Digitaria ciliaris. As to the kind of experiment: Herbicidal activity against Digitaria ciliaris assessed as killing at 500 g/ha pre-emergence application upland paddy conditions measured after 14 days. The data set is classed as functional.
The subject of a further data set is Chenopodium album. The data set can be described thus: Herbicidal activity against Chenopodium album assessed as killing at 500 g/ha pre-emergence application upland paddy conditions measured after 14 days. The data set is classed as functional.
The nature of data set [1]: Octanol-water partition coefficient, log K of the compound. The data set is classed as physicochemical. The settings on record: read-out: log K.
Data set [2] has as its system Echinochloa oryzicola. As to the kind of experiment: Herbicidal activity against Echinochloa oryzicola assessed as killing at 50 g/ha pre-emergence application under paddy conditions. The data set is classed as functional.
Data set [3] in a line: Herbicidal activity against broadleaf weed assessed as killing at 50 g/ha pre-emergence application under paddy conditions. The data set is classed as functional.
Another data set has as its system Oryza sativa. As to the kind of experiment: Toxicity in Oryza sativa (rice) assessed as injury at 50 g/ha pre-emergence application under paddy conditions by crop safety assay. The data set is classed as organism-based. The note with it: in vivo, other.
Data set [4] concerns Echinochloa oryzicola. As to the kind of experiment: Herbicidal activity against Echinochloa oryzicola assessed as killing pre-emergence application under paddy conditions. The data set is classed as functional.
Data set [5] concerns Schoenoplectiella juncoides. As to the kind of experiment: Herbicidal activity against Schoenoplectiella juncoides assessed as killing at 50 g/ha pre-emergence application under paddy conditions. The data set is classed as functional.
The next data set concerns Pontederia vaginalis. The data set can be described thus: Herbicidal activity against Monochoria vaginalis assessed as killing at 50 g/ha pre-emergence application under paddy conditions. The data set is classed as functional.
The test system of another data set is Zea mays. The data set can be described thus: Herbicidal activity against Zea mays (maize)assessed as killing at 500 g/ha pre-emergence application upland paddy conditions measured after 14 days. The data set is classed as functional.

`CCCC(C(=O)OC)S(=O)(=O)c1ncn(C(=O)N(CC)CC)n1` (centres undefined): the Activity turned out to be 100% in the data set with Echinochloa crus-galli; 100% with Digitaria ciliaris; 100% in the data set on Chenopodium album; 100% with Echinochloa oryzicola [2]; 60% in data set [3]; 10% in the data set with Oryza sativa. The Activity is 60% in data set [5], 60% with Pontederia vaginalis and 50% in the data set on Zea mays. Besides, in [1], the logP came out at 0.58. Moreover, the “log(1/ED80)” value in the data set with Echinochloa oryzicola [4] was found to be 1.14.

Take `CCN(CC)C(=O)n1cnc(S(=O)(=O)C(C(=O)OC)C2CC2)n1` (centres undefined): the Activity with Echinochloa crus-galli came to 90%; in the data set on Digitaria ciliaris, 100%; in the data set on Chenopodium album, 80%; in the data set on Echinochloa oryzicola [2], 10%; in data set [3], 10%; in the data set on Oryza sativa, 10%. The figures for the Activity (in [5]; with Pontederia vaginalis; in the data set with Zea mays) were 10%, 10% and 20%, respectively. Further, the logP in data set [1] came to 0.47. The “log(1/ED80)” value in the data set with Echinochloa oryzicola [4] turned out to be 0.24.

In the case of `CC(C)CC(C(=O)OC(C)C)S(=O)(=O)c1ncn(C(=O)N(C)C)n1` (centres undefined), the Activity with Echinochloa oryzicola [2] came to 60%; in [3], 40%; in data set [5] it was 10%; in the data set with Pontederia vaginalis, 10%.

In the case of `CCC(C)CC(C(=O)OC)S(=O)(=O)c1ncn(C(=O)N(CC)CC)n1` (centres undefined), the Activity came out at 90% in the data set on Echinochloa crus-galli; 90% in the data set with Digitaria ciliaris; 100% with Chenopodium album; 90% in the data set on Echinochloa oryzicola [2]; 80% in [3]; 10% with Oryza sativa. The Activity in data set [5] is listed as 80%; with Pontederia vaginalis, 40%; in the data set on Zea mays it was 20%. In addition, in data set [1], the logP is 0.79. For the same molecule, in the data set with Echinochloa oryzicola [4], the “log(1/ED80)” value stood at 0.99.

On to `CC(C)CC(C(=O)OC(C)C)S(=O)(=O)c1ncn(C(=O)N2CCCC2)n1` (centres undefined), for which the Activity in the data set on Echinochloa oryzicola [2] worked out at 40%; in data set [3], 30%; in the data set on Oryza sativa, 10%; in data set [5], 10%; in the data set with Pontederia vaginalis, 10%.

For the molecule `CC(C)CC(C(=O)OC(C)C)S(=O)(=O)c1ncn(C(=O)N(C)c2ccccc2)n1` (centres undefined), the Activity is 20% in the data set on Echinochloa oryzicola [2], 40% in data set [3], 10% in [5] and 10% in the data set on Pontederia vaginalis.

On to `CCN(CC)C(=O)n1cnc(S(=O)(=O)C(C(=O)OC)C(C)C)n1` (centres undefined), for which the Activity is 80% in the data set on Echinochloa crus-galli; 90% with Digitaria ciliaris; 90% in the data set with Chenopodium album; 100% in the data set on Echinochloa oryzicola [2]; 90% in data set [3]; 40% in the data set on Oryza sativa. The Activity in [5] stood at 100%; in the data set with Pontederia vaginalis, 100%; in the data set on Zea mays it was 30%. The logP in [1] came to 0.56. Moreover, the “log(1/ED80)” value in the data set on Echinochloa oryzicola [4] stood at 1.24.

Turning to `CCC(CC)C(C(=O)OC)S(=O)(=O)c1ncn(C(=O)N(CC)CC)n1` (centres undefined), the Activity came to 100% in the data set on Echinochloa crus-galli; 90% in the data set with Digitaria ciliaris; 90% in the data set with Chenopodium album; 100% in the data set with Echinochloa oryzicola [2]; 90% in [3]; 10% in the data set with Oryza sativa. Besides, the Activity in data set [5] came out at 80%; in the data set with Pontederia vaginalis, 100%; with Zea mays it was 30%. In addition, the logP in [1] stood at 0.76. Besides, in the data set on Echinochloa oryzicola [4], the “log(1/ED80)” value was 1.4.

Regarding `CCCCC(C(=O)OC)S(=O)(=O)c1ncn(C(=O)N(CC)CC)n1` (centres undefined), the Activity stood at 90% in the data set on Echinochloa crus-galli; 90% with Digitaria ciliaris; 100% in the data set on Chenopodium album; 90% with Echinochloa oryzicola [2]; 30% in [3]; 10% in the data set on Oryza sativa. Also, the figures for the Activity (in [5]; in the data set on Pontederia vaginalis; in the data set with Zea mays) were 10%, 40% and 50%, respectively. The logP in [1] turned out to be 0.69. For the same molecule, the “log(1/ED80)” value with Echinochloa oryzicola [4] stood at 0.9.

With `C=CC(C)C(C(=O)OC)S(=O)(=O)c1ncn(C(=O)N(CC)CC)n1` (centres undefined), the Activity in the data set with Echinochloa crus-galli is 90%; with Digitaria ciliaris, 90%; with Chenopodium album, 90%; in the data set with Echinochloa oryzicola [2], 60%; in data set [3] it was 10%; with Oryza sativa, 10%. The Activity in data set [5] turned out to be 10%; in the data set on Pontederia vaginalis it was 10%; in the data set with Zea mays, 70%. In addition, the logP in data set [1] was 0.63. Moreover, in the data set with Echinochloa oryzicola [4], the “log(1/ED80)” value came to 0.65.

Consider `CCN(CC)C(=O)C(CC(C)C)S(=O)(=O)c1ncn(C(=O)N(CC)CC)n1` (centres undefined), for which the Activity is 10% with Echinochloa oryzicola [2]; 10% in [3]; 20% in the data set with Oryza sativa; 10% in data set [5]; 10% in the data set with Pontederia vaginalis.

On to `CCC(C(=O)OC)S(=O)(=O)c1ncn(C(=O)N(CC)CC)n1` (centres undefined), for which the Activity with Echinochloa crus-galli was 60%; with Digitaria ciliaris, 50%; in the data set with Chenopodium album it was 40%; in the data set on Echinochloa oryzicola [2], 60%; in [3], 10%; with Oryza sativa it was 10%. The results for the Activity (in [5]; with Pontederia vaginalis; in the data set on Zea mays) were 10%, 10% and 30%, respectively. Besides, the logP in data set [1] was 0.49. Besides, the “log(1/ED80)” value with Echinochloa oryzicola [4] worked out at 0.74.

As to `CCN(CC)C(=O)n1cnc(S(=O)(=O)CC(=O)OC)n1`, the Activity was 40% in the data set on Echinochloa crus-galli; 50% in the data set with Digitaria ciliaris; 30% in the data set on Chenopodium album; 10% in the data set on Echinochloa oryzicola [2]; 10% in data set [3]; 10% with Oryza sativa. The Activity (in data set [5]; in the data set with Pontederia vaginalis; in the data set with Zea mays) was 10% in each case. The logP in data set [1] came out at 0.36. Besides, in the data set on Echinochloa oryzicola [4], the “log(1/ED80)” value is reported as 0.18.

Consider `CCC(C)C(C(=O)OC)S(=O)(=O)c1ncn(C(=O)N(CC)CC)n1` (centres undefined), for which the Activity with Echinochloa crus-galli is 90%; in the data set on Digitaria ciliaris, 100%; in the data set with Chenopodium album, 100%; in the data set on Echinochloa oryzicola [2], 100%; in data set [3], 80%; with Oryza sativa it was 10%. Moreover, the Activity in data set [5] is listed as 90%; in the data set with Pontederia vaginalis it was 60%; in the data set with Zea mays it was 40%. Further, the logP in data set [1] came out at 0.66. Besides, the “log(1/ED80)” value with Echinochloa oryzicola [4] is recorded as 0.95.

Take `CCN(CC)C(=O)n1cnc(S(=O)(=O)C(CC2CCCCC2)C(=O)OC)n1` (centres undefined): the Activity in the data set on Echinochloa crus-galli was 40%; with Digitaria ciliaris, 10%; in the data set with Chenopodium album, 40%; with Echinochloa oryzicola [2] it was 100%; in [3], 50%; with Oryza sativa it was 10%. The Activity was 10% in data set [5], 10% in the data set with Pontederia vaginalis and 20% in the data set with Zea mays. Moreover, the logP in data set [1] was 0.94. Moreover, in the data set on Echinochloa oryzicola [4], the “log(1/ED80)” value is reported as 1.2.

For the molecule `CCN(CC)C(=O)n1cnc(S(=O)(=O)C(C)C(=O)OC)n1` (centres undefined), the Activity is 60% in the data set with Echinochloa crus-galli; 80% in the data set on Digitaria ciliaris; 60% in the data set with Chenopodium album; 10% with Echinochloa oryzicola [2]; 10% in [3]; 10% with Oryza sativa. In addition, the Activity was found to be 10% in [5], 10% in the data set on Pontederia vaginalis and 20% in the data set with Zea mays. For the same molecule, in data set [1], the logP was found to be 0.41. In addition, in the data set on Echinochloa oryzicola [4], the “log(1/ED80)” value is recorded as -0.1.

`CCN(CC)C(=O)n1cnc(S(=O)(=O)C(Cc2ccccc2)C(=O)OC)n1` (centres undefined): the Activity with Echinochloa crus-galli came out at 10%; in the data set with Digitaria ciliaris it was 10%; in the data set on Chenopodium album, 30%; in the data set on Echinochloa oryzicola [2] it was 50%; in data set [3], 10%; with Oryza sativa, 10%. Moreover, the Activity (in [5]; with Pontederia vaginalis; with Zea mays) was 10% each time. The logP in data set [1] was 0.69. For the same molecule, the “log(1/ED80)” value in the data set with Echinochloa oryzicola [4] was determined as 0.6.

As to `CC(C)CC(C(=O)OC(C)C)S(=O)(=O)c1ncn(C(=O)N(C(C)C)C(C)C)n1` (centres undefined), the Activity in the data set with Echinochloa oryzicola [2] worked out at 60%; in [3], 60%; in data set [5], 30%; in the data set with Pontederia vaginalis, 10%.

Regarding `CCN(CC)C(=O)n1cnc(S(=O)(=O)C(C(=O)OC)C2CCCC2)n1` (centres undefined), the Activity in the data set on Echinochloa crus-galli amounted to 90%; with Digitaria ciliaris, 90%; in the data set with Chenopodium album it was 90%; with Echinochloa oryzicola [2], 100%; in [3], 90%; with Oryza sativa, 10%. The Activity in data set [5] is on record as 100%; in the data set with Pontederia vaginalis it was 100%; in the data set with Zea mays it was 80%. The logP in data set [1] came to 0.69. The “log(1/ED80)” value in the data set with Echinochloa oryzicola [4] was 1.27.

Take `CCN(CC)C(=O)n1cnc(S(=O)(=O)CCC(C)C)n1`: the Activity with Echinochloa oryzicola [2] was found to be 100%; in [3], 50%; with Oryza sativa it was 10%; in [5], 10%; with Pontederia vaginalis, 10%.

Consider `CC(C)CC(C(=O)OC(C)C)S(=O)(=O)c1ncn(C(=O)N2CCOCC2)n1` (centres undefined), for which the Activity (with Echinochloa oryzicola [2]; in data set [3]; in data set [5]; in the data set on Pontederia vaginalis) was 10% in each case.

As for `CC(C)CC(C(=O)OC(C)C)S(=O)(=O)c1ncn(C(=O)N(C)C2CCCCC2)n1` (centres undefined), the Activity was 30% in the data set with Echinochloa oryzicola [2], 50% in data set [3], 10% in data set [5] and 10% in the data set on Pontederia vaginalis.

Source of the values: ChEMBL document CHEMBL3044861, “Synthesis and Herbicidal Activity of New 2-(1-Carbamoyl-1, 2, 4-triazol-3-ylsulfonyl) alkanoates” (J Pestic Sci, 2002).
